From article PMC8951016, “Computational Design and Biological Evaluation of Analogs of Lupin Peptide P5 Endowed with Dual PCSK9/HMG-CoAR Inhibiting Activity” (Pharmaceutics, 2022)

Test system: LDLR
Assay: Western blot, LDLR protein level in HepG2
Format: cell-based, human
Conditions: 50 µM, 24 h
Experimental: A total of 1.5 × 10^5 HepG2 cells/well (24-well plate) were treated with 50 μM of P5 and P5 analogs for 24 h. Immunoblotting experiments were performed using optimized protocol. See Supplementary Materials for further details.
PBS for 1.5 h at RT. LDLR primary antibody solution (1:3000 in 5% BSA in PBS, 25 µL/well) was incubated O/N at +4 °C. Subsequently, the primary antibody solution was discarded and each sample was washed 5 times with 100 µL/well of PBS (each wash was for 5 min at RT). Goat anti-rabbit Ig-HRP secondary antibody solution (Santa Cruz) (1:6000 in 5% BSA in PBS, 50 µL/well), was added and incubated 1 h at RT. […] The reaction was stopped with 2 M H2SO4 and then the absorbance at 450 nm was measured using the microplate reader Synergy H1 (Winoo-ski, VT, USA). After the read, cells were stained by adding 1 X Janus Green stain, incubat-ing for 5 min at RT. […]
Afterward 100 µL 0.5 M HCl for well were added and incubated for 10 min. After 10 sec-onds shaking, the OD at 595 nm was measured using the microplate reader Synergy H1 […]
Fluorescent LDL Uptake. […] The degree of LDL uptake was measured using the Synergy H1 fluo-rescent plate reader (Winooski, VT, USA) (excitation and emission wavelengths 540 and 570 nm, respectively). Fluorescent LDL-uptake was finally assessed following optimized […]

With “LILPKHSDAD [Peptide P5, natural peptide derived from a peptic lupin protein hydrolysate]” the “LDLR protein level (words, P5)” value was “augmentation of the LDLR protein levels”.
